Measurements published in paper PMC8445934, “Transformation of tenofovir into stable ProTide nanocrystals with long-acting pharmacokinetic profiles” (Nature Communications, 2021).
Converted amounts (≈) assume the structure as drawn. “And” between values parts separate entries of the source, which are not always exact repeats. Equal values may be shown once. Read-outs that look alike come from different tables or passages of the source.

Key:
[1] = Aqueous and 1-octanol solubility (excess drug, shaking 48 h, UPLC-UV); type: physicochemical; conditions: for solubility at 48 h: water, thermodynamic from solid
Protocol: Samples were centrifuged at 20,000 × g for 10 min to separate the solubilized drug from insoluble pellet. Aqueous supernatants were frozen, lyophilized, and then resuspended in MeOH. 1-octanol supernatants were prepared for analysis by dilution in MeOH and samples analyzed for drug content by UPLC-UV (Waters Acquity H Class).

[2] = Prodrug stability in human plasma with or without heat-inactivation; type: in vitro ADME
Excerpt: Point 4. “It would be interesting to see what happens with separate injection at 56 days. Will mast cells occur or was a IgG or IGM response measured?”
Response: The transient presence of mast cells at the intramuscular site of injection is a normal physiological tissue injury response and has been previously observed after intramuscular injection of phosphate buffered saline or aqueous nanocrystalline compounds (Journal of the Neurological Sciences […]
al, mast cells could affect host protein adsorption to the particle surface to influence phagocytosis efficiency, lymphatic nanoparticle uptake and prodrug hydrolytic susceptibility. Other findings by Paquette et al. noted that the foreign body response observed following intramuscular or subcutaneous dosing of […]
Res. 2014; 31(8): 2065–2077). […]
immunogenicity markers were previously measured (PLoS One. 2015 Dec 30;10(12):e0145966. doi:
10.1371/journal.pone.0145966). In our prior studies we have assessed temporal leukocyte responses, drug uptake and distribution following multiple site injection of nanoformulated drugs. […]
inflammatory responses heralded drug distribution to macrophage populations, regional lymph nodes, spleen and liver. This proceeded changes in myeloid populations as determined through flow cytometric tests of changed CD45, CD3, CD11b, F4/80, and GR-1 surface markers. […]

HIV-1NL4–3-eGFP = test: microbe, parasite or virus in culture; type: cell-based; conditions: replicates
Excerpt: Supplementary Fi gur e 9. ProTide Biological Characterizations. […]
(1 picture or pasted object on this page, not shown here)

HIV-1ADA = test: Antiretroviral EC50/IC50 in MDM by HIV-1 RT activity after HIV-1ADA challenge; type: cell-based; conditions: for EC50: Human immunodeficiency virus 1, 240 h; for HIV-1 RT activity (Figure 2C source data): MDM, HIV-1ADA, replicates
Protocol: To determine long-term antiretroviral efficacy following a single treatment, MDMs were plated in flat-bottom 12-well plates at a density of 1.2 × 10^6 cells/well. […] After treatment, the cells were washed twice with PBS and cultured in a fresh culture medium without drug with half-media replacement every other day. On days 1, 5, 10, 15, 20, 25, and 30 following treatment, the cells were infected with HIV-1ADA (a macrophage-tropic viral strain) at a multiplicity of infection of 0.1 infectious particles/cell for 8 h. MDM were cultured, and media samples collected on day 10 for the measurement of HIV reverse transcriptase (RT) activity as previously described[64],[65]. Cells were fixed in 2% PFA at each time point, and expression of the HIV-1p24 antigen was determined by immunocytochemistry. […] After 4 h of viral challenge, the cells were washed with PBS and given fresh media that contained the same concentrations of drug (0.00005–5,000 nM). Cell supernatants were collected 10 days later and assayed for HIV-1 RT activity as described above. Replicate studies were performed in CEM-ss CD4+ T-cell cultures. Specifically, cells were plated in 96-well plates, centrifuged at 650 × g for 5 min, and resuspended in (0.1–1,000 nM) drug-containing media for 1 h. The subsequent challenge with HIV-1NL4–3-eGFP, cell culture, sample collection, and determination of HIV-1 RT activity were performed as previously reported[13],[15].

[3] = Prodrug chemical stability of dissociated nanoformulations in pH 2.0-10.3 buffers; type: physicochemical; conditions: buffers pH 2.0-10.3, 24 h
Protocol: The mixtures were centrifuged at 16,000 × g for 10 min. The supernatants were aspirated and stored at −80 °C until ultraperformance liquid chromatography tandem mass spectrometry (UPLC-MS/MS) analysis.

[4] = cited from earlier work
HIV-1 = conditions: cited from earlier work
[5] = Figure 1C source data, read-out: water solubility, individual replicates
[6] = room temperature, 48 h, read-out: aqueous solubilities
[7] = Log Drug Concentration (uM) -12

Row | Structure (SMILES) | water solubility, individual replicates ([1]; Figure 1C source data) | solubility at 48 h [1, 5] | solubility at 48 h [1, 6] | % GFP Positive (HIV-1NL4–3-eGFP; Log Drug Concentration (uM) 0) | % GFP Positive (HIV-1NL4–3-eGFP; Log Drug Concentration (uM) -1) | % GFP Positive (HIV-1NL4–3-eGFP; Log Drug Concentration (uM) -2) | % GFP Positive (HIV-1NL4–3-eGFP; Log Drug Concentration (uM) -3) | % GFP Positive (HIV-1NL4–3-eGFP; Log Drug Concentration (uM) -4) | % GFP Positive (HIV-1NL4–3-eGFP; Log Drug Concentration (uM) -5) | % GFP Positive (HIV-1NL4–3-eGFP; Log Drug Concentration (uM) -6) | % GFP Positive (HIV-1NL4–3-eGFP; Log Drug Concentration (uM) -9) | % GFP Positive (HIV-1NL4–3-eGFP; [7]) | EC50 (HIV-1ADA) | HIV-1 RT activity (Figure 2C source data) (HIV-1ADA; 5e-5 nM) | HIV-1 RT activity (Figure 2C source data) (HIV-1ADA; 0.0005 nM) | HIV-1 RT activity (Figure 2C source data) (HIV-1ADA; 0.005 nM) | HIV-1 RT activity (Figure 2C source data) (HIV-1ADA; 0.05 nM) | HIV-1 RT activity (Figure 2C source data) (HIV-1ADA; 0.5 nM) | HIV-1 RT activity (Figure 2C source data) (HIV-1ADA; 5 nM) | HIV-1 RT activity (Figure 2C source data) (HIV-1ADA; 50 nM) | also measured
1 | CCCCCCCCCCCCCCCCCCCCCCOC(=O)[C@H](Cc1ccccc1)NP(=O)(CO[C@H](C)Cn1cnc2c(N)ncnc21)Oc1ccccc1 (stereo partly drawn) [M1TFV] | 0.0003886 | 0.276 µg/mL (≈ 0.338 µM) | 2 µg/mL (≈ 2.44 µM) | 0.301% and 0.201% and 0.21% | 3.432% and 0.342% and 0.154% | 34.73% and 38.138% and 34.265% | 36.744% and 32.312% and 31.881% | 44.656% and 35.338% and 30.526% | 36.768% and 35.49% and 33.571% | 35.681% and 31.592% and 30.989% | 32.583% and 32.39% and 32.614% | 35.706% and 34.095% and 37.882% | 0.109 µM | 44.264 and 8.411 and 11.973 | 42.363 and 4.488 and 5.375 and 2.931 | 26.663 and 5.953 and 9.965 and 9.489 | 19.017 and 5.47 and 12.158 and 10.741 | 23.553 and 6.74 and 16.993 and 9.609 | 22.939 and 4.566 and 20.189 and 10.617 | 10.793 and 9.389 and 15.273 and 9.576 | prodrug stability in human plasma [2]: greater prodrug stability is observed following heat-inactivation; HIV-1 RT activity (Figure 2C source data) (HIV-1ADA; 500 nM): 1.18 and 0.8 and 2.373 and 0.711; HIV-1 RT activity (Figure 2C source data) (HIV-1ADA; 5000 nM): 0.069 and 0.042 and 0.107 and 0.063; hydrolytic stability across pH [3]: enhanced prodrug stability over a broader pH range
2 | C[C@@H](Cn1cnc2c(N)ncnc21)OCP(=O)(O)OP(=O)(O)OP(=O)(O)O [TFV-DP, TFV-diphosphate] |  |  |  |  |  |  |  |  |  |  |  |  |  |  |  |  |  |  |  |  | intracellular half-life [4]: 60 to 100 h; EC90 linked to HIV-1 prevention (HIV-1): 16−48 fmol/10^6 cells; human EC90 (HIV-1): 40 fmol/10^6 cells
3 | C[C@H](Cn1cnc2c(N)ncnc21)OCP(=O)(O)O [TFV] |  |  |  | 36.84% and 37.843% | 31.924% and 40.715% and 38.216% | 37.754% and 35.95% and 31.757% | 42.49% and 36.095% and 44.333% | 39.731% and 37.304% and 35.107% | 38.31% and 35.838% and 38.644% | 32.278% and 38.458% and 41.384% | 41.35% and 30.768% | 42.035% and 35.935% and 39.23% |  |  |  |  |  |  |  |  | 
4 | CCCCCCCCCCCCCCCCCCCCCCOC(=O)[C@H](C)NP(=O)(CO[C@H](C)Cn1cnc2c(N)ncnc21)Oc1ccccc1 (stereo partly drawn) [M2TFV] | 0.01251 | 12.8 µg/mL (≈ 17.2 µM) | 7 µg/mL (≈ 9.42 µM) |  | 34.257% and 38.787% and 40.022% | 32.595% and 37.488% and 35.513% | 41.233% and 50.41% and 33.492% | 35.706% and 41.394% and 37.81% | 40.045% and 36.193% and 55.429% | 38.435% and 46.924% and 37.203% | 35.618% and 35.142% and 32.671% | 34.002% and 36.532% and 30.423% | 0.0457 µM | 13.739 and 9.752 and 35.142 and 27.238 | 8.448 and 5.392 and 11.763 and 48.649 | 4.57 and 12.93 and 25.65 | 20.147 and 8.847 and 17.324 and 34.222 | 8.161 and 9.38 and 10.627 and 29.921 | 11.203 and 10.291 and 8.118 and 21.328 | 5.19 and 8.444 and 10.014 and 13.232 | HIV-1 RT activity (Figure 2C source data) (HIV-1ADA; 500 nM): 0.193 and 0.074 and 0.345 and 0.105; HIV-1 RT activity (Figure 2C source data) (HIV-1ADA; 5000 nM): 0.109 and 0.079 and 0.087 and 0.068
